Data: ChEMBL document CHEMBL5137018, “Pyranochromones with Anti-Inflammatory Activities in Arthritis from Calophyllum membranaceum” (J Nat Prod, 2022)
The source made the active and inactive calls. The calls are words filed in the database; no cut-off is given here.

Tests used:
[1] = test system: RAW264.7; experiment: Cytotoxicity against mouse RAW264.7 cells assessed as effect on cell viability measured after 12 hrs by MTT assay; format: functional
[2] = test system: RAW264.7; experiment: Antiinflammatory activity in mouse RAW264.7 assessed as inhibition of LPS-induced NO production preincubated for 12 hrs followed by LPS stimulation and measured after 6 hrs by Griess reagent based assay; format: functional, cell-based
[3] = test system: Mus musculus; experiment: Antiinflammatory activity in carrageenan-induced acute arthritis ICR mouse assessed as reduction in paw swelling at 10 to 20 mg/kg, po for 10 days followed by carrageenan stimulation and measured upto 6 hrs by vernier caliper method; format: functional, organism-based; details: dose 10-20 mg/kg, time 10.0 day
[4] = test system: Mus musculus; experiment: Antiinflammatory activity in carrageenan-induced acute arthritis ICR mouse assessed as reduction in relative neutrophil to lymphocyte ratio at 10 mg/kg, po for 10 days followed by carrageenan stimulation and measured upto 6 hrs by hematology analyzer; format: functional; details: time 10 day
[5] = test system: Mus musculus; experiment: Antiinflammatory activity in carrageenan-induced acute arthritis ICR mouse assessed as reduction in relative neutrophil to lymphocyte ratio at 20 mg/kg, po for 10 days followed by carrageenan stimulation and measured upto 6 hrs by hematology analyzer; format: functional; details: time 10 day
[6] = test system: Mus musculus; experiment: Antiinflammatory activity in carrageenan-induced acute arthritis ICR mouse assessed as downregulation of IL-2 secretion in plasma measured at 10 to 20 mg/kg, po for 10 days followed by carrageenan stimulation and measured after 6 hrs by ELISA; format: functional, organism-based; details: dose 10-20 mg/kg, time 10.0 day, DDE = dose-dependent effect
[7] = test system: Mus musculus; experiment: Antiinflammatory activity in carrageenan-induced acute arthritis ICR mouse assessed as downregulation of IL-4 secretion in plasma measured at 10 to 20 mg/kg, po for 10 days followed by carrageenan stimulation and measured after 6 hrs by ELISA; format: functional, organism-based; details: dose 10-20 mg/kg, time 10.0 day, DDE = dose-dependent effect
[8] = test system: Mus musculus; experiment: Antiinflammatory activity in carrageenan-induced acute arthritis ICR mouse assessed as downregulation of IL-5 secretion in plasma measured at 10 to 20 mg/kg, po for 10 days followed by carrageenan stimulation and measured after 6 hrs by ELISA; format: functional, organism-based; details: dose 10-20 mg/kg, time 10.0 day, DDE = dose-dependent effect
[9] = test system: RAW264.7; experiment: Antiinflammatory activity in mouse RAW264.7 cells assessed as increase in IKK alpha phosphorylation at 0.1 to 5 uM preincubated for 12 hrs followed by LPS stimulation and measured after 24 hrs by western blot assay; format: functional, cell-based; details: dose 0.1-5 µM, time 36.0 hrs, DDE = dose-dependent effect
[10] = test system: RAW264.7; experiment: Antiinflammatory activity in mouse RAW264.7 cells assessed as increase in IKK beta phosphorylation at 0.1 to 5 uM preincubated for 12 hrs followed by LPS stimulation and measured after 24 hrs by western blot assay; format: functional, cell-based; details: dose 0.1-5 µM, time 36.0 hrs, DDE = dose-dependent effect
[11] = test system: RAW264.7; experiment: Antiinflammatory activity in mouse RAW264.7 cells assessed as suppression of NF-kappa B expression at 0.1 to 5 uM preincubated for 12 hrs followed by LPS stimulation and measured after 24 hrs by western blot assay; format: functional, cell-based; details: dose 0.1-5 µM, time 36.0 hrs, DDE = dose-dependent effect
[12] = target: T1, Toll-like receptor 4 (Mus musculus) (UniProt Q9QUK6); experiment: Binding affinity to mouse TLR4 in RAW264.7 cells assessed as thermal stabilization at 1 uM and measured after 12 hrs by CETSA analysis; format: cell-based
T1 sequence (whole entry): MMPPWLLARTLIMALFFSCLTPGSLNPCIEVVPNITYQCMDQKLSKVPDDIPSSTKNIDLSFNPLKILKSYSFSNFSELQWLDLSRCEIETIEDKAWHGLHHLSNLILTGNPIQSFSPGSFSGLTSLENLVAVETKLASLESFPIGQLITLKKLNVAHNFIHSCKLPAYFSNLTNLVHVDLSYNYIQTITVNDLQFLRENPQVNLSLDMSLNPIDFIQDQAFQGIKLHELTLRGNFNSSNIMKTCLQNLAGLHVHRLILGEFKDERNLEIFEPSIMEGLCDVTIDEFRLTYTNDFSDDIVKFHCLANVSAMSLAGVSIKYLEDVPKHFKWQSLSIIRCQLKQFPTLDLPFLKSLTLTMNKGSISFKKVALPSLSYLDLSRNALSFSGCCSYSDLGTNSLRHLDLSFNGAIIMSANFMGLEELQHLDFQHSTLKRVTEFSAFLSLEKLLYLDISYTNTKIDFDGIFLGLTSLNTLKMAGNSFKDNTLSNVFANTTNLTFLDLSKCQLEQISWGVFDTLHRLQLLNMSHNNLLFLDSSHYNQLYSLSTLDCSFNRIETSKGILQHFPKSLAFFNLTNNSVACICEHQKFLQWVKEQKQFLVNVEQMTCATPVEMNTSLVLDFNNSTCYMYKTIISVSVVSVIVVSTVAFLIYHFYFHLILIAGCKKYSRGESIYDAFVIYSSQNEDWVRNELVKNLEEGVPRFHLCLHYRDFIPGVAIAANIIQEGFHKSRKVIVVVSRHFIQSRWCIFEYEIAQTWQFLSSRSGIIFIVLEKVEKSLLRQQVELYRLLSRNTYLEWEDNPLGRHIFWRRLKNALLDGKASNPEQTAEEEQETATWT

[13] = test system: RAW264.7; experiment: Antiinflammatory activity in LPS induced mouse RAW264.7 cells assessed as downregulation of IL-2 secretion at 0.1 to 5 uM incubated for 12 hrs followed by LPS stimulation and measured after 24 hrs by ELISA; format: functional, cell-based; details: dose 0.1-5 µM, time 36.0 hrs, DDE = dose-dependent effect
[14] = test system: RAW264.7; experiment: Antiinflammatory activity in LPS induced mouse RAW264.7 cells assessed as downregulation of IL-4 secretion at 0.1 to 5 uM incubated for 12 hrs followed by LPS stimulation and measured after 24 hrs by ELISA; format: functional, cell-based; details: dose 0.1-5 µM, time 36.0 hrs, DDE = dose-dependent effect
[15] = test system: RAW264.7; experiment: Antiinflammatory activity in LPS induced mouse RAW264.7 cells assessed as downregulation of IL-5 secretion at 0.1 to 5 uM incubated for 12 hrs followed by LPS stimulation and measured after 24 hrs by ELISA; format: functional, cell-based; details: dose 0.1-5 µM, time 36.0 hrs, DDE = dose-dependent effect

IC50 [2] [µM] | Structure (SMILES) | CC50 [1] [µM] | other results
11.3 | COC(=O)C[C@@H](c1ccccc1)c1c(O)c2c(c3c1OC(C)(C)C=C3)O[C@H](C)[C@H](C)C2=O | 601 | –
5.14 | CCCC(CC(=O)OC)c1c2c(c(O)c3c1O[C@H](C)[C@@H](C)C3=O)C=CC(C)(C)O2 (stereo partly drawn) | 649 | –
20.3 | CNC(=N)NCCC[C@H](N)C(=O)O [TILARGININE ACETATE] | 214 | –
6.88 | CCCCCC(CC(=O)O)c1c2c(c(O)c3c1O[C@H](C)[C@@H](C)C3=O)C=CC(C)(C)O2 (stereo partly drawn) | 668 | –
5.17 | CCCCC[C@H](CC(=O)O)c1c(O)c2c(c3c1OC(C)(C)C=C3)O[C@H](C)[C@H](C)C2=O | 636 | –
8.42 | CCCC1CC(=O)Oc2c(C(=O)[C@H](C)[C@H](C)O)c(O)c3c(c21)OC(C)(C)C=C3 (stereo partly drawn) | 552 | –
13.8 | C[C@@H]1Oc2c(c(O)c3c(c2[C@@H](CC(=O)O)c2ccccc2)OC(C)(C)C=C3)C(=O)[C@H]1C | 569 | –
10.1 | C[C@H](C(=O)c1c(O)c2c(c3c1OC(=O)C[C@H]3c1ccccc1)OC(C)(C)C=C2)[C@@H](C)O | 507 | –
9.34 | C[C@H](O)[C@H](C)C(=O)c1c(O)c2c(c3c1OC(=O)C[C@H]3c1ccccc1)OC(C)(C)C=C2 | 517 | –
4.05 | CCCCCC(CC(=O)OC)c1c2c(c(O)c3c1O[C@H](C)[C@@H](C)C3=O)C=CC(C)(C)O2 (stereo partly drawn) | 687 | –
4.23 | CCCC[C@H](CC(=O)OC)c1c2c(c(O)c3c1O[C@@H](C)[C@H](C)C3=O)C=CC(C)(C)O2 | 574 | –
12.6 | C[C@H]1Oc2c(c(O)c3c(c2[C@@H](CC(=O)O)c2ccccc2)OC(C)(C)C=C3)C(=O)[C@@H]1C | 524 | –
12.5 | COC(=O)C[C@@H](c1ccccc1)c1c2c(c(O)c3c1O[C@@H](C)[C@H](C)C3=O)C=CC(C)(C)O2 | 594 | –
0.92 | CCCCC[C@H](CC(=O)OC)c1c(O)c2c(c3c1OC(C)(C)C=C3)O[C@H](C)[C@H](C)C2=O | 660 | Activity [3]: Active; Ratio [4]: 0.89; Ratio [5]: 0.74; Activity [6]: Dde; Activity [7]: Dde; Activity [8]: Dde; Activity [9]: Dde; Activity [10]: Dde; Activity [11]: Dde; Activity [12]: Active; Activity [13]: Dde; Activity [14]: Dde; Activity [15]: Dde
2.91 | CCC[C@@H](CC(=O)OC)c1c(O)c2c(c3c1OC(C)(C)C=C3)O[C@@H](C)[C@H](C)C2=O | 698 | –
7.43 | CCCCC(CC(=O)O)c1c2c(c(O)c3c1O[C@H](C)[C@@H](C)C3=O)C=CC(C)(C)O2 (stereo partly drawn) | 654 | –
11.3 | C[C@@H]1C(=O)c2c(O)c([C@@H](CC(=O)O)c3ccccc3)c3c(c2O[C@@H]1C)C=CC(C)(C)O3 (single isomer, unassigned) | 583 | –
8.23 | C[C@@H]1Oc2c3c(c([C@@H](CC(=O)O)c4ccccc4)c(O)c2C(=O)[C@@]1(C)O)OC(C)(C)C=C3 | 588 | –
18.4 | CC/C=C\C[C@H](CC(=O)O)c1c2c(c(O)c3c1O[C@@H](C)[C@H](C)C3=O)C=CC(C)(C)O2 | 550 | –
8.44 | CCCC(CC(=O)O)c1c2c(c(O)c3c1O[C@H](C)[C@@H](C)C3=O)C=CC(C)(C)O2 (stereo partly drawn) | 663 | –
